Results reported in US20240343717A1, “MICROBIOCIDAL PYRAZOLE DERIVATIVES” (SYNGENTA CROP PROTECTION AG, priority 2021, published 2024).

Tests used:
[1] = system: Mycosphaerella graminicola (Septoria tritici); assay: Mycosphaerella graminicola (Septoria tritici) / liquid culture (Septoria blotch); type: cell-based; details: Zymoseptoria tritici, growth inhibition photometrically 4-5 days after application, read-out: control of Mycosphaerella graminicola
How it was run: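 Conidia suspended in potato dextrose broth and added to test compound supplied in DMSO in 96-well plates. Incubated at 24 °C, and growth inhibition read photometrically 4-5 days after application.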

Alternaria solani = Alternaria solani / tomato / leaf disc (early blight); type: in vivo; details: foliar, tomato leaf disks, sprayed 2 days before inoculation, compared to untreated control
Method: Example B1: Alternaria solani/Tomato/Leaf Disc (Early Blight) Tomato leaf disks cv. Baby are placed on agar in multiwell plates (24-well format) and sprayed with the formulated test compound diluted in water. The leaf disks are inoculated with a spore suspension of the fungus 2 days after application. The inoculated leaf disks are incubated at 23° C./21° C.

[2] = system: Botryotinia fuckeliana (Botrytis cinerea); assay: Botryotinia fuckeliana (Botrytis cinerea) / liquid culture (gray mould); type: cell-based; details: growth inhibition photometrically 3-4 days after application, read-out: control of Botryotinia fuckeliana
How it was run: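 Conidia suspended in Vogels broth and added to compound dispensed from DMSO. Incubated at 24°C, with growth inhibition measured photometrically 3–4 days later.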

[3] = system: Glomerella lagenarium (Colletotrichum lagenarium); assay: Glomerella lagenarium (Colletotrichum lagenarium) / liquid culture (anthracnose); type: cell-based; details: Colletotrichum orbiculare, growth inhibition photometrically 3-4 days after application, read-out: control of Glomerella lagenarium
How it was run: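 Cryo-stored conidia in potato dextrose broth were added to test compound in DMSO. Plates were incubated at 24° C, and growth inhibition was read photometrically 3-4 days after application.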

[4] = system: Blumeria graminis f. sp. tritici (Erysiphe graminis f. sp. tritici); assay: Blumeria graminis f. sp. tritici / wheat / leaf disc preventative (powdery mildew on wheat); type: in vivo; details: foliar, wheat leaf segments, inoculated 1 day after application
Method: Example B4: Blumeria graminis f. Sp. Tritici (Erysiphe graminis f. Sp. Tritici)/Wheat/Leaf Disc Preventative (Powdery Mildew on Wheat) Wheat leaf segments cv. Kanzler are placed on agar in a multiwell plate (24-well format) and sprayed with the formulated test compound diluted in water. The leaf disks are inoculated by shaking powdery mildew infected plants above the test plates 1 day after application. The inoculated leaf disks are incubated at 20° C. and 60% rh under a light regime of 24 h darkness followed by 12 h light/12 h darkness in a climate chamber and the activity of a compound is assessed as percent disease control compared to untreated when an appropriate level of disease damage appears on untreated check leaf segments (6-8 days after application).

Fusarium culmorum = assay: microbe, parasite or virus in culture; type: cell-based; details: read-out: control of Fusarium culmorum
[5] = system: Phaeosphaeria nodorum (Septoria nodorum); assay: Phaeosphaeria nodorum (Septoria nodorum) / wheat / leaf disc preventative (glume blotch); type: in vivo; details: Parastagonospora nodorum, foliar, wheat leaf segments, inoculated 2 days after application
Method: Example B8: Phaeosphaeria nodorum (Septoria nodorum)/Wheat/Leaf Disc Preventative (Glume Blotch) Wheat leaf segments cv. Kanzler are placed on agar in a multiwell plate (24-well format) and sprayed with the formulated test compound diluted in water. The leaf disks are inoculated with a spore suspension of the fungus 2 days after application. The inoculated test leaf disks are incubated at 20° C. and 75% rh under a light regime of 12 h light/12 h darkness in a climate cabinet and the activity of a compound is assessed as percent disease control compared to untreated when an appropriate level of disease damage appears in untreated check leaf disks (5-7 days after application).

[6] = system: Monographella nivalis (Microdochium nivale); assay: Monographella nivalis (Microdochium nivale) / liquid culture (foot rot cereals); type: cell-based; details: growth inhibition photometrically 4-5 days after application, read-out: control of Monographella nivalis
How it was run: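 Fungal conidia mixed directly into potato dextrose broth and added to test compound delivered in DMSO. Incubated at 24° C; growth inhibition read photometrically 4-5 days after application.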

[7] = system: Mycosphaerella arachidis (Cercospora arachidicola); assay: Mycosphaerella arachidis (Cercospora arachidicola) / liquid culture (early leaf spot); type: cell-based; details: growth inhibition photometrically 4-5 days after application, read-out: control of Mycosphaerella arachidis
Method: Example B10: Mycosphaerella arachidis (Cercospora arachidicola)/Liquid Culture (Early Leaf Spot) Conidia of the fungus from cryogenic storage are directly mixed into nutrient broth (PDB potato dextrose broth). After placing a (DMSO) solution of test compound into a microtiter plate (96-well format), the nutrient broth containing the fungal spores is added. The test plates are incubated at 24° C. and the inhibition of growth is determined photometrically 4-5 days after application.

Pyrenophora teres = Pyrenophora teres / barley / leaf disc preventative (net blotch); type: in vivo; details: foliar, barley leaf segments, inoculated 2 days after application
Method: Example B14: Pyrenophora teres/Barley/Leaf Disc Preventative (Net Blotch) Barley leaf segments cv. Hasso are placed on agar in a multiwell plate (24-well format) and sprayed with the formulated test compound diluted in water. The leaf segments are inoculated with a spore suspension of the fungus 2 days after application. The inoculated leaf segments are incubated at 20° C. and 65% rh under a light regime of 12 h light/12 h darkness in a climate cabinet and the activity of a compound is assessed as disease control compared to untreated when an appropriate level of disease damage appears in untreated check leaf segments (5-7 days after application).

Sclerotinia sclerotiorum = Sclerotinia sclerotiorum / liquid culture (cottony rot); type: cell-based; details: growth inhibition photometrically 3-4 days after application, read-out: control of Sclerotinia sclerotiorum
Method: Example B15: Sclerotinia sclerotiorum/Liquid Culture (Cottony Rot) Mycelia fragments of a newly grown liquid culture of the fungus are directly mixed into nutrient broth (PDB potato dextrose broth). After placing a (DMSO) solution of test compound into a microtiter plate (96-well format) the nutrient broth containing the fungal material is added. The test plates are incubated at 24° C. and the inhibition of growth is determined photometrically 3-4 days after application.

| Compound | inhibition of growth at 20 ppm [1] | melting point | pest or weed control at 200 ppm (Alternaria solani) | inhibition of growth at 20 ppm [2] | inhibition of growth at 20 ppm [3] | pest or weed control at 200 ppm [4] | inhibition of growth at 20 ppm (Fusarium culmorum) | pest or weed control at 200 ppm [5] | inhibition of growth at 20 ppm [6] | inhibition of growth at 20 ppm [7] | pest or weed control at 200 ppm (Pyrenophora teres) | inhibition of growth at 20 ppm (Sclerotinia sclerotiorum) |
| --- | --- | --- | --- | --- | --- | --- | --- | --- | --- | --- | --- | --- |
| COc1ccc(C(C)(CNC(=O)c2cc(-c3ccc(F)cc3F)on2)c2cnn(C)c2)nc1Cl (centres unmarked) [Compound P-14, N-[2-(6-chloro-5-methoxy-2-pyridyl)-2-(1-methylpyrazol-4-yl)propyl]-5-(2,4-difluorophenyl) isoxazole-3-carboxamide] | ≥ 80% | 196 to 199 °C | – | – | – | – | – | – | – | – | – | – |
| Cn1ncc(C(C)(CNC(=O)c2nnc(-c3ccc(F)cc3F)s2)c2cccc(Cl)n2)c1Cl (centres unmarked) [Compound P-25, N-[2-(5-chloro-1-methyl-pyrazol-4-yl)-2-(6-chloro-2-pyridyl)propyl]-5-(2,4-difluorophenyl)-1,3,4-thiadiazole-2-carboxamide] | ≥ 80% | – | ≥ 80% | ≥ 80% | ≥ 80% | ≥ 80% | ≥ 80% | ≥ 80% | ≥ 80% | ≥ 80% | ≥ 80% | ≥ 80% |
| Cn1cc(C(C)(CNC(=O)c2cc(-c3ccc(F)cc3F)on2)c2cc(C#N)ccn2)cn1 (centres unmarked) [Compound P-63, N-[2-(4-cyano-2-pyridyl)-2-(1-methylpyrazol-4-yl)propyl]-5-(2,4-difluorophenyl) isoxazole-3-carboxamide] | ≥ 80% | 156 to 158 °C | – | – | – | – | – | – | – | – | ≥ 80% | – |
| COc1cnc(Cl)nc1C(C)(CNC(=O)c1cc(-c2ccc(F)cc2F)on1)c1cnn(C)c1 (centres unmarked) [Compound P-65, N-[2-(2-chloro-5-methoxy-pyrimidin-4-yl)-2-(1-methylpyrazol-4-yl)propyl]-5-(2,4-difluorophenyl) isoxazole-3-carboxamide] | – | 145 to 151 °C | – | – | – | – | – | – | – | – | – | – |
| CO/N=C(\C)c1ccnc(C(C)(CNC(=O)c2cc(-c3ccc(F)cc3F)on2)c2cnn(C)c2)c1 (centres unmarked) [Compound P-72, 5-(2,4-difluorophenyl)-N-[2-[4-[(E)-N-methoxy-C-methyl-carbonimidoyl]-2-pyridyl]-2-(1-methylpyrazol-4-yl)propyl]isoxazole-3-carboxamide] | – | 88 to 90 °C | – | – | – | – | – | – | ≥ 80% | – | – | – |
| Cn1cc(C(C)(CNC(=O)c2cc(-c3cccn3C)on2)c2cccc(Cl)n2)cn1 (centres unmarked) [Compound P-81, N-[2-(6-chloro-2-pyridyl)-2-(1-methylpyrazol-4-yl)propyl]-5-(1-methylpyrrol-2-yl)isoxazole-3-carboxamide] | ≥ 80% | 111 to 113 °C | – | ≥ 80% | ≥ 80% | – | – | – | ≥ 80% | ≥ 80% | – | – |
| Cn1cc(C(C)(CNC(=O)c2nc(-c3ccc(F)cc3F)no2)c2cccc(Cl)n2)cn1 (centres unmarked) [Compound P-84, N-[2-(6-chloro-2-pyridyl)-2-(1-methylpyrazol-4-yl)propyl]-3-(2,4-difluorophenyl)-1,2,4-oxadiazole-5-carboxamide] | ≥ 80% | – | ≥ 80% | ≥ 80% | ≥ 80% | ≥ 80% | ≥ 80% | ≥ 80% | ≥ 80% | ≥ 80% | ≥ 80% | ≥ 80% |
| Cc1cc(-c2cc(C(=O)NCC(C)(c3cnn(C)c3)c3cccc(Cl)n3)no2)n(C)n1 (centres unmarked) [Compound P-85, N-[2-(6-chloro-2-pyridyl)-2-(1-methylpyrazol-4-yl)propyl]-5-(2,5-dimethylpyrazol-3-yl)isoxazole-3-carboxamide] | ≥ 80% | 182 to 184 °C | – | – | ≥ 80% | ≥ 80% | – | – | – | – | ≥ 80% | – |
| Cn1cc(C(C)(CNC(=O)c2nnc(-c3ccc(F)cc3F)o2)c2cccc(Cl)n2)cn1 (centres unmarked) [Compound P-101, N-[2-(6-chloro-2-pyridyl)-2-(1-methylpyrazol-4-yl)propyl]-5-(2,4-difluorophenyl)-1,3,4-oxadiazole-2-carboxamide] | ≥ 80% | – | ≥ 80% | ≥ 80% | ≥ 80% | ≥ 80% | – | ≥ 80% | ≥ 80% | ≥ 80% | ≥ 80% | ≥ 80% |
| Cn1cc(C(C)(CNC(=O)c2cc(-c3ccc(F)cc3F)on2)c2cccc(C3CC3)n2)cn1 (centres unmarked) [Compound P-102, N-[2-(6-cyclopropyl-2-pyridyl)-2-(1-methylpyrazol-4-yl)propyl]-5-(2,4-difluorophenyl) isoxazole-3-carboxamide] | ≥ 80% | – | – | ≥ 80% | ≥ 80% | – | ≥ 80% | ≥ 80% | ≥ 80% | ≥ 80% | ≥ 80% | ≥ 80% |
| Cn1ncc(C(C)(CNC(=O)c2nnc(-c3ccc(F)cc3F)s2)c2cccc(C#N)n2)c1Cl (centres unmarked) [Compound P-118, N-[2-(5-chloro-1-methyl-pyrazol-4-yl)-2-(6-cyano-2-pyridyl)propyl]-5-(2,4-difluorophenyl)-1,3,4-thiadiazole-2-carboxamide] | ≥ 80% | – | – | ≥ 80% | ≥ 80% | – | ≥ 80% | – | ≥ 80% | ≥ 80% | – | ≥ 80% |
| Cn1ncc(C(C)(CNC(=O)c2cc(-c3ccc(F)cc3F)on2)c2cccc(C#N)n2)c1Cl (centres unmarked) [Compound P-119, N-[2-(5-chloro-1-methyl-pyrazol-4-yl)-2-(6-cyano-2-pyridyl)propyl]-5-(2,4-difluorophenyl) isoxazole-3-carboxamide] | ≥ 80% | – | – | ≥ 80% | ≥ 80% | – | ≥ 80% | – | ≥ 80% | ≥ 80% | – | ≥ 80% |
